Data set [1] has as its target T1, Flag-STING (Mus musculus, UniProt Q3TBT3).
T1 construct: expressed in transfected cells; host or cells: HEK293T (lentiviral transduction, induced overnight)
T1 sequence (Q3TBT3 1-378): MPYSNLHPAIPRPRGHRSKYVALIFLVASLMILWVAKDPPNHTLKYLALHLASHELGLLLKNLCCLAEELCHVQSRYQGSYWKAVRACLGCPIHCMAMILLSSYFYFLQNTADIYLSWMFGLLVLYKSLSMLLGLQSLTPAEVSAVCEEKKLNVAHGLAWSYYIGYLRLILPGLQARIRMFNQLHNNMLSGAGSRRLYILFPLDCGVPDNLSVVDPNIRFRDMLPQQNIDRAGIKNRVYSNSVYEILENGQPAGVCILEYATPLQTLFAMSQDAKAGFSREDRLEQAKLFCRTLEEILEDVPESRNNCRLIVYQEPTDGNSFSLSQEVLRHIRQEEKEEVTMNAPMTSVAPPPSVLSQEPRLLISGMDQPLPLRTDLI
The experiment in a line: Protein mass spectrometry of immunoprecipitated Flag-STING. Type of data set: binding. To be noted: Flag-STING; 1 µM, 30min.

Data set [2] deals with T2, Flag-STING (Mus musculus, UniProt Q3TBT3, C91S).
T2 construct: expressed in transfected cells; host or cells: HEK293T (lentiviral transduction, induced overnight)
T2 sequence (Q3TBT3 1-378 C91S): T1 sequence (Q3TBT3 1-378) with C91S
The data set is described as above. Format: binding. The note with it: Flag-STING C91S; 1µM.

The nature of data set [3]: Solubility (comparison). Type of data set: physicochemical.
The conditions of data set [4]: mouse, in vivo, ip.
Data set [5] addresses T3, STING (Mus musculus, UniProt Q3TBT3).
T3 sequence (Q3TBT3 1-378): T1 sequence (Q3TBT3 1-378)
The experiment in a line: Blue native gel assay of STING clusters. Set-up: expressed in transfected cells; host or cells: HEK293T. The note with it: C-178, C-176 1 µM, 2-BP 50 µM; CMA 1.5 h. Format: cell-based. As for the experimental part:
Reporter activity was measured 16 h after compound treatment. A nonlinear regression analysis was performed. […] Circles indicate substitutes compared to C-176. d, e, Chemical compounds from (c) were tested at 0.5 µM for inhibitory activity in HEK293T cells transfected with STING (e) or RIG-I (f) in conjunction with IFN-• luciferase reporter, respectively. b, e, f, Values of inhibitor-treated cells were normalized to DMSO-treated cells. […] Cytokine levels were normalized to DMSO-treated control cells. A nonlinear regression analysis was performed for cGAMP stimulation. b, c, BMDMs were pre-treated with C-178 (0.25 µM) and stimulated with cGAMP, cyclic di-GMP, CMA, 90mer dsDNA or LPS for 3 h. The induction of Ifnb1 mRNA levels was assessed by RT-qPCR. d, Heatmaps of RNA sequencing analysis of BMDMs treated with DMSO or CMA and with or without addition of C-178. […] Reporter activity was measured 16 h after transfection and values were normalized to DMSO-treated control cells. c, BMDMs were treated with C-178 (0.25 µM) for 1 h, washed or left untreated and after an additional hour stimulated with cGAMP. […] Flag-STING was immunoprecipitated from whole cell lysate and analysed by autoradiography. In parallel, cell lysates were analysed by immunoblotting for p-TBK1 and STING. d, HEK293T cells expressing STING were treated as indicated (C-178 (1 µM)) and stimulated with CMA for 1.5 h. […]

Structures are written as SMILES. Numbering of substitutions follows the chain as printed.

Consider `O=C(Nc1ccc(I)cc1)c1ccc([N+](=O)[O-])o1` [C-176, N-(4-iodophenyl)-5-nitro-2-furamide], for which, in data set [1], the “covalent modification of STING, mass shift” value is given as “irreversibly modify STING”. Further, the “covalent binding to STING-C91S” value in data set [2] is “absence of covalent binding”. Moreover, the “solubility relative to C-178” value in data set [3] is on record as “improved solubility”. For the same compound, the serum half-life result in data set [4] is listed as “short”. The “assembly of STING clusters” value in data set [5] is “blocked”.

For the origin of these results see patent publication EP3502102A1, “STING INHIBITORS” (ECOLE POLYTECHNIQUE FEDERALE DE LAUSANNE (EPFL), priority 2017, dated 2019).
